# Test results: patent US6706663B2, “Herbicidal 3-heterocyclic substituted benzisothiazole and benzisoxazole compounds” (Wyeth, priority 2000, dated 2004)
# Assays:
# [1] = system: TRZAWR (Wheat, Winter, cv Riband); test: Postemergence herbicidal evaluation; format: in vivo, Triticum aestivum; conditions: postemergence
# Method in brief: (§1)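 Seedlings grown for about two weeks were sprayed postemergence and then kept under standard greenhouse care. Injury was rated visually 4–5 weeks after treatment on a 0–9 scale against untreated controls, and ratings from repeat tests were averaged.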
# [2] = system: AMBEL (Ambrosia artemisifolia); test: Postemergence herbicidal evaluation; format: in vivo, L.; conditions: postemergence
# Method in brief: as §1
# [3] = system: CASOB (Cassia obtusifolia); test: Postemergence herbicidal evaluation; format: in vivo, L.; conditions: postemergence
# Method in brief: as §1
# [4] = system: CHEAL (Chenopodium album); test: Postemergence herbicidal evaluation; format: in vivo, L.; conditions: postemergence
# Method in brief: as §1
# [5] = system: SETVI (Setaria viridis); test: Preemergence herbicidal evaluation; format: in vivo, (L.) Beau; conditions: rated 4-5 weeks after treatment
# Method in brief: (§2)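 Each species was sown separately in potting soil over roughly one inch of soil, and the surface sprayed with compound dissolved in aqueous acetone. Assessment used a 0–9 visual scale against a control after four to five weeks.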
# [6] = system: ECHCG (Echinochloa crus-galli); test: Preemergence herbicidal evaluation; format: in vivo, (L.) Beau; conditions: rated 4-5 weeks after treatment
# Method in brief: as §2
# [7] = system: GALAP (Galium aparine); test: Preemergence herbicidal evaluation; format: in vivo; conditions: rated 4-5 weeks after treatment
# Method in brief: as §2
# [8] = system: CYPSE (Cyperus serotinus); test: Flooded paddy, preemergence weed control; format: in vivo, Rottb.; conditions: rated 3-4 weeks after treatment, 0-9 rating scale
# Method in brief: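 Herbicidal effect was scored visually on a 0–9 scale against an untreated control 3–4 weeks after treatment. Compounds were applied preemergence as 50/50 v/v aqueous/acetone mixtures into flood water (1.5–3 cm deep over silt loam), at roughly 0.0080 to 0.1250 kg/ha active ingredient.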
# [9] = system: CYPIR (Cyperus iria); test: Flooded paddy, preemergence weed control; format: in vivo; conditions: rated 3-4 weeks after treatment, 0-9 rating scale
# Method in brief: (§3)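 Ratings of 0-9 reflect visual comparison with a control for stand, vigor, deformity, size, chlorosis and overall look. Propagules were placed in shallow silt loam (top 0.5 cm) under a continuous 1.5–3 cm flood and grown in the greenhouse.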
# [10] = system: SAGPY (Sagittaria pygmaea); test: Flooded paddy, preemergence weed control; format: in vivo, L.; conditions: rated 3-4 weeks after treatment, 0-9 rating scale
# Method in brief: as §3
# [11] = system: MOOVA (Monochoria vaginalis); test: Flooded paddy, preemergence weed control; format: in vivo, Presl.; conditions: rated 3-4 weeks after treatment, 0-9 rating scale
# Method in brief: as §3
# [12] = system: ABUTH (Abutilon theophrasti); test: Postemergence herbicidal evaluation; format: in vivo, Medic.; conditions: postemergence
# Method in brief: as §1
# [13] = system: ORYSAT (Rice, Tebonnet); test: Postemergence herbicidal evaluation; format: in vivo, Oryza sativa, (L.) Tebonnet; conditions: postemergence
# Method in brief: as §1
# [14] = system: IPOHE (Ipomoea hederacea); test: Postemergence herbicidal evaluation; format: in vivo, (L.) Jacq.; conditions: postemergence
# Method in brief: as §1
# [15] = system: SETVI (Setaria viridis); test: Postemergence herbicidal evaluation; format: in vivo, (L.) Beau; conditions: postemergence
# Method in brief: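 Seedlings grown about two weeks were sprayed with compound in 50/50 acetone/water containing 0.5% TWEEN 20, at about 0.0040 to 1.000 kg/ha via nozzle at 40 psi. Plants were kept under greenhouse conditions and visually rated on a 0-9 scale versus control four to five weeks after treatment; replicate tests averaged.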
# [16] = system: AMBEL (Ambrosia artemisifolia); test: Preemergence herbicidal evaluation; format: in vivo, L.; conditions: rated 4-5 weeks after treatment
# Method in brief: as §2
# [17] = system: CASOB (Cassia obtusifolia); test: Preemergence herbicidal evaluation; format: in vivo, L.; conditions: rated 4-5 weeks after treatment
# Method in brief: as §2
# [18] = system: CHEAL (Chenopodium album); test: Preemergence herbicidal evaluation; format: in vivo, L.; conditions: rated 4-5 weeks after treatment
# Method in brief: as §2
# [19] = system: ORYSAT (Rice, Tebonnet); test: Preemergence herbicidal evaluation; format: in vivo, Oryza sativa, (L.) Tebonnet; conditions: rated 4-5 weeks after treatment
# [20] = system: GALAP (Galium aparine); test: Postemergence herbicidal evaluation; format: in vivo; conditions: postemergence
# Method in brief: as §1
smiles,measurement,setting,value
"Cn1c(C(F)(F)F)cc(=O)n(-c2ccc3snc(-c4nccs4)c3c2)c1=O [Compound 53, 1-methyl-3-[3-(2-thiazolyl)-1,2-benzisothiazol-5-yl]-6-(trifluoromethyl)uracil]",TRZAWR herbicidal rating,[1]; rate 0.0320 kg/ha,3.3
same,TRZAWR herbicidal rating,[1]; rate 0.0620 kg/ha,4.0
same,TRZAWR herbicidal rating,[1]; rate 0.1250 kg/ha,4.0
same,AMBEL herbicidal rating,[2]; rate 0.0320 kg/ha,6.5
same,AMBEL herbicidal rating,[2]; rate 0.0620 kg/ha,9.0
same,AMBEL herbicidal rating,[2]; rate 0.1250 kg/ha,9.0
same,CASOB herbicidal rating,[3]; rate 0.0320 kg/ha,2.0
same,CASOB herbicidal rating,[3]; rate 0.0620 kg/ha,4.0
same,CASOB herbicidal rating,[3]; rate 0.1250 kg/ha,3.0
same,CHEAL herbicidal rating,[4]; rate 0.0320 kg/ha,4.5
same,CHEAL herbicidal rating,[4]; rate 0.0620 kg/ha,7.0
same,CHEAL herbicidal rating,[4]; rate 0.1250 kg/ha,9.0
same,Preemergence herbicidal rating SETVI,[5]; Rate 0.0620 kg/ha,9.0
same,Preemergence herbicidal rating SETVI,[5]; Rate 0.1250 kg/ha,9.0
same,Preemergence herbicidal rating SETVI,[5]; Rate 0.2500 kg/ha,9.0
same,Preemergence herbicidal rating ECHCG,[6]; Rate 0.0620 kg/ha,2.0
same,Preemergence herbicidal rating ECHCG,[6]; Rate 0.1250 kg/ha,4.5
same,Preemergence herbicidal rating ECHCG,[6]; Rate 0.2500 kg/ha,8.5
same,Preemergence herbicidal rating GALAP,[7]; Rate 0.0620 kg/ha,8.0
same,Preemergence herbicidal rating GALAP,[7]; Rate 0.1250 kg/ha,8.0
same,Preemergence herbicidal rating GALAP,[7]; Rate 0.2500 kg/ha,9.0
same,"herbicidal rating, CYPSE",[8]; rate 0.0320 kg/ha,3.0
same,"herbicidal rating, CYPSE",[8]; rate 0.1250 kg/ha,9.0
same,"herbicidal rating, CYPIR",[9]; rate 0.0080 kg/ha,9.0
same,"herbicidal rating, CYPIR",[9]; rate 0.0320 kg/ha,8.3
same,"herbicidal rating, CYPIR",[9]; rate 0.1250 kg/ha,9.0
same,"herbicidal rating, SAGPY",[10]; rate 0.0080 kg/ha,0.0
same,"herbicidal rating, SAGPY",[10]; rate 0.0320 kg/ha,4.3
same,"herbicidal rating, SAGPY",[10]; rate 0.1250 kg/ha,9.0
same,"herbicidal rating, MOOVA",[11]; rate 0.0080 kg/ha,9.0
same,"herbicidal rating, MOOVA",[11]; rate 0.0320 kg/ha,9.0
same,"herbicidal rating, MOOVA",[11]; rate 0.1250 kg/ha,9.0
same,ABUTH herbicidal rating,[12]; rate 0.0320 kg/ha,9.0
same,ABUTH herbicidal rating,[12]; rate 0.0620 kg/ha,9.0
same,ABUTH herbicidal rating,[12]; rate 0.1250 kg/ha,9.0
same,ORYSAT herbicidal rating,[13]; rate 0.0320 kg/ha,3.0
same,ORYSAT herbicidal rating,[13]; rate 0.0620 kg/ha,3.5
same,ORYSAT herbicidal rating,[13]; rate 0.1250 kg/ha,3.0
same,IPOHE herbicidal rating,[14]; rate 0.0320 kg/ha,8.0
same,IPOHE herbicidal rating,[14]; rate 0.0620 kg/ha,9.0
same,IPOHE herbicidal rating,[14]; rate 0.1250 kg/ha,9.0
same,SETVI herbicidal rating,[15]; rate 0.0320 kg/ha,2.5
same,SETVI herbicidal rating,[15]; rate 0.0620 kg/ha,5.5
same,SETVI herbicidal rating,[15]; rate 0.1250 kg/ha,9.0
same,Preemergence herbicidal rating AMBEL,[16]; Rate 0.0620 kg/ha,4.0
same,Preemergence herbicidal rating AMBEL,[16]; Rate 0.1250 kg/ha,8.0
same,Preemergence herbicidal rating AMBEL,[16]; Rate 0.2500 kg/ha,8.5
same,Preemergence herbicidal rating CASOB,[17]; Rate 0.0620 kg/ha,0.0
same,Preemergence herbicidal rating CASOB,[17]; Rate 0.1250 kg/ha,1.0
same,Preemergence herbicidal rating CASOB,[17]; Rate 0.2500 kg/ha,3.0
same,Preemergence herbicidal rating CHEAL,[18]; Rate 0.0620 kg/ha,9.0
same,Preemergence herbicidal rating CHEAL,[18]; Rate 0.1250 kg/ha,9.0
same,Preemergence herbicidal rating CHEAL,[18]; Rate 0.2500 kg/ha,9.0
same,Preemergence herbicidal rating ORYSAT,[19]; Rate 0.0620 kg/ha,1.0
same,Preemergence herbicidal rating ORYSAT,[19]; Rate 0.1250 kg/ha,3.0
same,Preemergence herbicidal rating ORYSAT,[19]; Rate 0.2500 kg/ha,5.0
same,GALAP herbicidal rating,[20]; rate 0.0320 kg/ha,2.5
same,GALAP herbicidal rating,[20]; rate 0.0620 kg/ha,3.0
same,GALAP herbicidal rating,[20]; rate 0.1250 kg/ha,7.0
"Cn1c(C(F)(F)F)cc(=O)n(-c2cc3c(C4OCCO4)nsc3cc2F)c1=O [Compound 61, 3-[3-(1,3-dioxolan-2-yl)-6-fluoro-1,2-benzisothiazol-5-yl]-1-methyl-6-(trifluoromethyl)uracil]",TRZAWR herbicidal rating,[1]; rate 0.0320 kg/ha,5.5
same,AMBEL herbicidal rating,[2]; rate 0.0320 kg/ha,9.0
same,AMBEL herbicidal rating,[2]; rate 0.0620 kg/ha,9.0
same,CASOB herbicidal rating,[3]; rate 0.0320 kg/ha,9.0
same,CHEAL herbicidal rating,[4]; rate 0.0320 kg/ha,9.0
same,CHEAL herbicidal rating,[4]; rate 0.0620 kg/ha,9.0
same,Preemergence herbicidal rating SETVI,[5]; Rate 0.0002 kg/ha,0.0
same,Preemergence herbicidal rating SETVI,[5]; Rate 0.0160 kg/ha,9.0
same,Preemergence herbicidal rating SETVI,[5]; Rate 0.0320 kg/ha,9.0
same,Preemergence herbicidal rating ECHCG,[6]; Rate 0.0002 kg/ha,0.0
same,Preemergence herbicidal rating ECHCG,[6]; Rate 0.0160 kg/ha,9.0
same,Preemergence herbicidal rating ECHCG,[6]; Rate 0.0320 kg/ha,9.0
same,Preemergence herbicidal rating GALAP,[7]; Rate 0.0002 kg/ha,0.0
same,Preemergence herbicidal rating GALAP,[7]; Rate 0.0160 kg/ha,8.5
same,Preemergence herbicidal rating GALAP,[7]; Rate 0.0320 kg/ha,9.0
same,"herbicidal rating, CYPSE",[8]; rate 0.0320 kg/ha,9.0
same,"herbicidal rating, CYPSE",[8]; rate 0.1250 kg/ha,9.0
same,"herbicidal rating, CYPIR",[9]; rate 0.0080 kg/ha,8.7
same,"herbicidal rating, CYPIR",[9]; rate 0.0320 kg/ha,9.0
same,"herbicidal rating, CYPIR",[9]; rate 0.1250 kg/ha,9.0
same,"herbicidal rating, SAGPY",[10]; rate 0.0080 kg/ha,3.0
same,"herbicidal rating, SAGPY",[10]; rate 0.0320 kg/ha,8.3
same,"herbicidal rating, SAGPY",[10]; rate 0.1250 kg/ha,9.0
same,"herbicidal rating, MOOVA",[11]; rate 0.0080 kg/ha,8.5
same,"herbicidal rating, MOOVA",[11]; rate 0.0320 kg/ha,9.0
same,"herbicidal rating, MOOVA",[11]; rate 0.1250 kg/ha,9.0
same,ABUTH herbicidal rating,[12]; rate 0.0320 kg/ha,9.0
same,ABUTH herbicidal rating,[12]; rate 0.0620 kg/ha,9.0
same,ORYSAT herbicidal rating,[13]; rate 0.0320 kg/ha,5.5
same,IPOHE herbicidal rating,[14]; rate 0.0320 kg/ha,9.0
same,IPOHE herbicidal rating,[14]; rate 0.0620 kg/ha,9.0
same,SETVI herbicidal rating,[15]; rate 0.0320 kg/ha,7.5
same,SETVI herbicidal rating,[15]; rate 0.0620 kg/ha,8.0
same,Preemergence herbicidal rating AMBEL,[16]; Rate 0.0002 kg/ha,0.0
same,Preemergence herbicidal rating AMBEL,[16]; Rate 0.0160 kg/ha,9.0
same,Preemergence herbicidal rating AMBEL,[16]; Rate 0.0320 kg/ha,9.0
same,Preemergence herbicidal rating CASOB,[17]; Rate 0.0002 kg/ha,0.0
same,Preemergence herbicidal rating CASOB,[17]; Rate 0.0160 kg/ha,7.3
same,Preemergence herbicidal rating CASOB,[17]; Rate 0.0320 kg/ha,7.0
same,Preemergence herbicidal rating CHEAL,[18]; Rate 0.0002 kg/ha,2.0
same,Preemergence herbicidal rating CHEAL,[18]; Rate 0.0160 kg/ha,9.0
same,Preemergence herbicidal rating CHEAL,[18]; Rate 0.0320 kg/ha,9.0
same,Preemergence herbicidal rating ORYSAT,[19]; Rate 0.0002 kg/ha,0.0
same,Preemergence herbicidal rating ORYSAT,[19]; Rate 0.0160 kg/ha,8.7
same,Preemergence herbicidal rating ORYSAT,[19]; Rate 0.0320 kg/ha,9.0
same,GALAP herbicidal rating,[20]; rate 0.0320 kg/ha,9.0
